Test system: 171881-019-R-J1-PDC tumor spheroids, viability
Assay: Anticancer human tumor 171881-019-R-J1-PDC patient-derived invasive breast carcinoma cell line growth inhibition [GQUAD]
Conditions: spheroids with HUVEC and MSC; for IC50: curve of first compound; for viability, T/C: stronger effect = lower value
From the text: DNA G-quadruplex Stabilizer Agents in Combinations in Complex Spheroids
A high-throughput screen of multi-cell type tumor spheroids was designed to identify active combinations of DNA G-quadruplex stabilizer agents and targeted small molecules. Complex spheroids include a stromal component modeled by human endothelial cells (HUVEC) and fibroblasts modeled by human mesenchymal stem cells (MSCs). The concentration ranges selected for each drug and investigational agent were based upon clinically achievable concentrations if the clinical Cmax of the agent was known.
Compounds. The drugs and investigational agents: pidnarulex (CX-5461; NSC782164), APTO-253 (NSC789042), BRACO-19 (NSC847499), peposertib (NSC802822), ceralasertib (NSC780249), elimusertib (NSC800525), camonsertib (NSC841442), AZD-1390 (NSC803789), olaparib (NSC753686), talazoparib (NSC767125), ART-558 (NSC835418), sotorasib (NSC818433), MRTX-1133 (NSC836407), SN-38 (NSC673596), topotecan (NSC609699), etoposide (NSC141540), doxorubicin (NSC123127), gemcitabine (NSC613327), 5-fluorouracil (NSC19893), paclitaxel (NSC125973), vemurafenib (NSC761431), panobinostat (NSC761190), R-306465 (JNJ-16241199; NSC773264), adavosertib (NSC754352), TP-3654 (NSC805149), carboplatin (NSC241240), KSQ-4279 (NSC840948), and staurosporine (NSC755774) were obtained from the National Cancer Institute (NCI) Developmental Therapeutics Program Chemical Repository (34). The FDA-approved anticancer drug set is available from the NCI Developmental Therapeutics Program. […] The stock solutions were prepared in dimethyl sulfoxide (DMSO, Sigma-Aldrich, St. Louis, MO, cat. D2650) at 800-fold the tested concentration and stored at -70 degrees C prior to their use. All drugs and investigational agents were tested over a range starting from a high concentration at or near the clinical Cmax and decreasing in half-log increments. If the clinical Cmax for an agent had not been determined, the highest concentration tested was 10 microM.
2.3 Cell Culture. All cells were maintained in an incubator at 37 degrees C and 5% CO2 with 95% humidity. The PDC lines were cultured according to standard operating procedures established by the NCI PDMR. All PDCs were thawed and cultured in Matrigel-coated flasks prepared with a working solution of 1X Ham's F-12 nutrient mix, without supplementation (Invitrogen, cat. 11765054), 100 U/mL penicillin-streptomycin (Invitrogen, cat. 15140122), and 2.5% Matrigel (Corning Inc., cat. 354248) for the first three passages. The 857933-349-R-J2-PDC line was cultured in 6C/Colon 1B media, which includes advanced DMEM/F-12 (Thermo Fisher Scientific, cat. 12634028), 10 mM HEPES (Thermo Fisher Scientific, cat. 15630080), 1X GlutaMAX supplement (Thermo Fisher Scientific, cat. 35050061), 0.1 mg/mL primocin (InvivoGen, cat. ant-pm-2), 10% defined fetal bovine serum, heat inactivated (HyClone Laboratories Inc., cat. SH30070.03HI), 50% L-WRN conditioned media (ATCC, cat. CRL-3276), 1.25 mM N-Acetyl-L-cysteine (Sigma-Aldrich, cat. A9165), 10 mM nicotinamide (Sigma-Aldrich, cat. N0636), 1X B-27 supplement (Thermo Fisher Scientific, cat. 17504044), 1X N-2 supplement (Thermo Fisher Scientific, cat. 17502048), 10 microM Y-27632 dihydrochloride (Tocris Bioscience, cat. 1254), and 50 ng/mL human EGF recombinant protein (Thermo Fisher Scientific, cat. PHG0311). The 485176-168-R4-J1-PDC line was cultured in Panc media, which includes all 6C/Colon 1B media components plus 100 ng/mL human FGF-10 (Thermo Fisher Scientific, cat. 100-26), 500 nM SB-431542 (Selleckchem, cat. S1067), and gastrin (Tocris, cat. 3006).
[…]

[1] = second compound 0.0316 µM, first compound 0.0316 µM
[2] = second compound 0.0316 µM, first compound 0.316 µM
[3] = second compound 0.1 µM, first compound 0.0316 µM
[4] = second compound 0.1 µM, first compound 0.316 µM
[5] = second compound 0.316 µM, first compound 0.0316 µM
[6] = second compound 0.316 µM, first compound 0.316 µM
[7] = second compound 1 µM, first compound 0.0316 µM
[8] = second compound 1 µM, first compound 0.316 µM
[9] = second compound 3.16 µM, first compound 0.0316 µM
[10] = second compound 3.16 µM, first compound 0.316 µM
[11] = second compound 10 µM, first compound 0.0316 µM
[12] = second compound 10 µM, first compound 0.316 µM
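Note: spheroids exposed to compounds for 7 days.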
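Throughout, for viability, T/C: 100% = DMSO vehicle control viability.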

CCCS(=O)(=O)Nc1ccc(F)c(C(=O)c2c[nH]c3ncc(-c4ccc(Cl)cc4)cc23)c1F + Cc1cnc(CNC(=O)c2c(=O)c3ccc(N4CCCN(C)CC4)nc3n3c2sc2ccccc23)cn1
IC50 (second compound 0.0316 µM): > 10000 nM
IC50 (second compound 0.1 µM): > 10000 nM
IC50 (second compound 0.316 µM): > 10000 nM
IC50 (second compound 1 µM): > 10000 nM
IC50 (second compound 3.16 µM): > 10000 nM
IC50 (second compound 10 µM): > 10000 nM
viability, T/C [1]: 104%
viability, T/C (second compound 0.0316 µM, first compound 0.1 µM): 95.3%
viability, T/C [2]: 108%
viability, T/C (second compound 0.0316 µM, first compound 1 µM): 112%
viability, T/C (second compound 0.0316 µM, first compound 3.16 µM): 117%
viability, T/C (second compound 0.0316 µM, first compound 10 µM): 69.3%
viability, T/C [3]: 83%
viability, T/C (second compound 0.1 µM, first compound 0.1 µM): 95.2%
viability, T/C [4]: 90.4%
viability, T/C (second compound 0.1 µM, first compound 1 µM): 102%
viability, T/C (second compound 0.1 µM, first compound 3.16 µM): 92.2%
viability, T/C (second compound 0.1 µM, first compound 10 µM): 54.9%
viability, T/C [5]: 78%
viability, T/C (second compound 0.316 µM, first compound 0.1 µM): 78.8%
viability, T/C [6]: 81.9%
viability, T/C (second compound 0.316 µM, first compound 1 µM): 78.7%
viability, T/C (second compound 0.316 µM, first compound 3.16 µM): 91.9%
viability, T/C (second compound 0.316 µM, first compound 10 µM): 52.1%
viability, T/C [7]: 72.1%
viability, T/C (second compound 1 µM, first compound 0.1 µM): 66.5%
viability, T/C [8]: 79.5%
viability, T/C (second compound 1 µM, first compound 1 µM): 69.5%
viability, T/C (second compound 1 µM, first compound 3.16 µM): 82.3%
viability, T/C (second compound 1 µM, first compound 10 µM): 59.6%
viability, T/C [9]: 63.9%
viability, T/C (second compound 3.16 µM, first compound 0.1 µM): 61.8%
viability, T/C [10]: 68.5%
viability, T/C (second compound 3.16 µM, first compound 1 µM): 66.6%
viability, T/C (second compound 3.16 µM, first compound 3.16 µM): 67.5%
viability, T/C (second compound 3.16 µM, first compound 10 µM): 53%
viability, T/C [11]: 59.9%
viability, T/C (second compound 10 µM, first compound 0.1 µM): 62.1%
viability, T/C [12]: 59.4%
viability, T/C (second compound 10 µM, first compound 1 µM): 68%
viability, T/C (second compound 10 µM, first compound 3.16 µM): 68.4%
viability, T/C (second compound 10 µM, first compound 10 µM): 51.8%

CCc1c2c(nc3ccc(O)cc13)-c1cc3c(c(=O)n1C2)COC(=O)[C@]3(O)CC + Cc1cnc(CNC(=O)c2c(=O)c3ccc(N4CCCN(C)CC4)nc3n3c2sc2ccccc23)cn1
IC50 (second compound 0.0316 µM): 2.09 nM
IC50 (second compound 0.1 µM): 3.31 nM
IC50 (second compound 0.316 µM): 5.81 nM
IC50 (second compound 1 µM): 8.53 nM
IC50 (second compound 3.16 µM): 7.26 nM
IC50 (second compound 10 µM): 5.9 nM
viability, T/C (second compound 0.0316 µM, first compound 0.000999 µM): 62.6%
viability, T/C (second compound 0.0316 µM, first compound 0.00316 µM): 39.1%
viability, T/C (second compound 0.0316 µM, first compound 0.00999 µM): 36.5%
viability, T/C [1]: 30.9%
viability, T/C (second compound 0.0316 µM, first compound 0.0999 µM): 26.2%
viability, T/C [2]: 19.9%
viability, T/C (second compound 0.1 µM, first compound 0.000999 µM): 57.7%
viability, T/C (second compound 0.1 µM, first compound 0.00316 µM): 49.3%
viability, T/C (second compound 0.1 µM, first compound 0.00999 µM): 43.5%
viability, T/C [3]: 35.3%
viability, T/C (second compound 0.1 µM, first compound 0.0999 µM): 26.4%
viability, T/C [4]: 20.2%
viability, T/C (second compound 0.316 µM, first compound 0.000999 µM): 61.6%
viability, T/C (second compound 0.316 µM, first compound 0.00316 µM): 55.5%
viability, T/C (second compound 0.316 µM, first compound 0.00999 µM): 46.1%
viability, T/C [5]: 35.5%
viability, T/C (second compound 0.316 µM, first compound 0.0999 µM): 27.7%
viability, T/C [6]: 18.8%
viability, T/C (second compound 1 µM, first compound 0.000999 µM): 60.3%
viability, T/C (second compound 1 µM, first compound 0.00316 µM): 53.2%
viability, T/C (second compound 1 µM, first compound 0.00999 µM): 51.6%
viability, T/C [7]: 34.3%
viability, T/C (second compound 1 µM, first compound 0.0999 µM): 24%
viability, T/C [8]: 15.8%
viability, T/C (second compound 3.16 µM, first compound 0.000999 µM): 60.8%
viability, T/C (second compound 3.16 µM, first compound 0.00316 µM): 50.1%
viability, T/C (second compound 3.16 µM, first compound 0.00999 µM): 52.9%
viability, T/C [9]: 35.4%
viability, T/C (second compound 3.16 µM, first compound 0.0999 µM): 26%
viability, T/C [10]: 13.8%
viability, T/C (second compound 10 µM, first compound 0.000999 µM): 52.3%
viability, T/C (second compound 10 µM, first compound 0.00316 µM): 55.1%
viability, T/C (second compound 10 µM, first compound 0.00999 µM): 47.4%
viability, T/C [11]: 37.3%
viability, T/C (second compound 10 µM, first compound 0.0999 µM): 24.8%
viability, T/C [12]: 12.6%
